Laboratory results taken from US5863936A, “Telomerase inhibitors” (Geron Corporation, priority 1995, dated 1999).
“And” between values parts separate entries of the source, which are not always exact repeats. Equal entries are not always repeated. Where two headings read alike, the source gives them in different places.

Target: T1, telomerase (Homo sapiens, UniProt O14746)
T1 construct: cells, tissues, or preferably a cellular extract or other preparation containing telomerase; endogenous in cells
Test: Telomerase inhibition (IC50) with cellular extract or other preparation containing telomerase
Format: biochemical
Source text: One method used to identify compounds of the invention that inhibit telomerase activity involves placing cells, tissues, or preferably a cellular extract or other preparation containing telomerase in contact with several known concentrations of a test compound in a buffer compatible with telomerase activity. […] Other methods for determining the inhibitory concentration of a compound of the invention against telomerase can be employed as will be apparent to those of skill in the art based on the disclosure herein.
With the above-described methods, IC50 values for several of the compounds of the present invention were determined. The values reported in Table 1 below are only approximate values; more exact IC50 values can be obtained by repetitive testing.

[1] = approximate values, read-out: IC50

T1 sequence (O14746 whole entry): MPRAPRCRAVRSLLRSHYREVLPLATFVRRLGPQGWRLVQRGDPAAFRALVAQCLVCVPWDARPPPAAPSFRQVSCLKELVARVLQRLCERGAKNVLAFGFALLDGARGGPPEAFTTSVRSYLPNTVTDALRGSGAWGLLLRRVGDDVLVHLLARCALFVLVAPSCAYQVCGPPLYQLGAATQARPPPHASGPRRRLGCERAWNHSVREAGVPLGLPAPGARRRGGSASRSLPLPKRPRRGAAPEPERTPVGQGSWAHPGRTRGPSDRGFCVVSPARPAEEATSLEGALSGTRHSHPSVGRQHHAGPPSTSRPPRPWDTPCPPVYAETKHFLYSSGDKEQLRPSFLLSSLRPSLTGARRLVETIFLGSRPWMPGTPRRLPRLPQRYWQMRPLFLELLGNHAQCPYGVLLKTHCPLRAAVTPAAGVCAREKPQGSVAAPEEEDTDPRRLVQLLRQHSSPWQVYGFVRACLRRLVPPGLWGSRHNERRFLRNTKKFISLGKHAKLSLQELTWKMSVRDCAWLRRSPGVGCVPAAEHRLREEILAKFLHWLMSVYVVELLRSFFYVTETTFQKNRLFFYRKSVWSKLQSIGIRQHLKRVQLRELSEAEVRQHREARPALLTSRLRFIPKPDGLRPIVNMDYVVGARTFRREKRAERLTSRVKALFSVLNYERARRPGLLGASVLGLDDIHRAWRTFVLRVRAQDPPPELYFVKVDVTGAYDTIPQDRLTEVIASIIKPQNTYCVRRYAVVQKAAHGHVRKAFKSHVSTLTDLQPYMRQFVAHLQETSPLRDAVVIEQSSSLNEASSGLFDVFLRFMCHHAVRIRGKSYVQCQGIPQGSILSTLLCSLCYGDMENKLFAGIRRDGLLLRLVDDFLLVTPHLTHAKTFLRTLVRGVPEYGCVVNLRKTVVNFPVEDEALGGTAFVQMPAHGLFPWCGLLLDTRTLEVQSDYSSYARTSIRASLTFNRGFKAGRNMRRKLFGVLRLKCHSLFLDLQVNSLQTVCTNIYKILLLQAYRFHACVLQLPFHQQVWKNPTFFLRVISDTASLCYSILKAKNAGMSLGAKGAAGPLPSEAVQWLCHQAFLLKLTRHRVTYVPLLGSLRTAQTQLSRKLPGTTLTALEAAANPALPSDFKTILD
T1 sequence (O60832 whole entry partner): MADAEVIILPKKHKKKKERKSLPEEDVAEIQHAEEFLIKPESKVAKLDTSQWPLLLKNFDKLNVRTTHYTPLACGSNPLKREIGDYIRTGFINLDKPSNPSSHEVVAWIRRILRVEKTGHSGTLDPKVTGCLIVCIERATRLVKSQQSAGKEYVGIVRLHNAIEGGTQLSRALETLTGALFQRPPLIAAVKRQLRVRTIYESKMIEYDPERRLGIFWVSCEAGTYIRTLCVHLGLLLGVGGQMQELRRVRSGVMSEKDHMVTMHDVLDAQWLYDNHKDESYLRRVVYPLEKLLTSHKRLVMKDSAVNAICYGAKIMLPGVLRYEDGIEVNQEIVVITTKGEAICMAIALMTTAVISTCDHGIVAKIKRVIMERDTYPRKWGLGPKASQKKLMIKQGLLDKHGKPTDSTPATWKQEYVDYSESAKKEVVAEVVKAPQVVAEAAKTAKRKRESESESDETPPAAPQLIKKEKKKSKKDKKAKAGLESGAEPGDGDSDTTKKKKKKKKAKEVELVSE
T1 sequence (Q9NPE3 whole entry partner): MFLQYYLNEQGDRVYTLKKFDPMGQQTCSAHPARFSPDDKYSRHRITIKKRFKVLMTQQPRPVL
T1 sequence (Q9NX24 whole entry partner): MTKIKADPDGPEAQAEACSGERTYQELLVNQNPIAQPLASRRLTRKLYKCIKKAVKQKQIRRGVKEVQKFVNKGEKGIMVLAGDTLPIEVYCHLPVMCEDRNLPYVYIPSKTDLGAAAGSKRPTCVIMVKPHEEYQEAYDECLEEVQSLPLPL
T1 sequence (Q9NY12 whole entry partner): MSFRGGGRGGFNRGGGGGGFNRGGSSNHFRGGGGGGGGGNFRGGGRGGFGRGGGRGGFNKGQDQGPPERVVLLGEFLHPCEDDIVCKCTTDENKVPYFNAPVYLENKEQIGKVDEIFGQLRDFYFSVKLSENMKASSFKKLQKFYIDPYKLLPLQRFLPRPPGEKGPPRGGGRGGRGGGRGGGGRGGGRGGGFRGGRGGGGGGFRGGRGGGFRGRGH

anti-telomerase activity (in words)	IC50 [1]	Structure (SMILES)	IC50 (IC50, approximate values) [µM]
useful telomerase-inhibiting properties	8 µM	COc1ccc2c(Cl)c(C(=O)NNC(=S)Nc3ccc(Cl)c(Cl)c3Cl)sc2c1 [Compound XXII]	–
–	9 µM	Cc1ccc(Sc2ccccc2NC(=S)NNC(=O)c2cc3c(Cl)cccc3s2)cc1 [Compound XV]	–
–	6 µM	O=C(NNC(=S)Nc1cccc(Cl)c1Cl)c1sc2cc(-c3ccccc3)ccc2c1Cl [Compound XXVI]	–
–	6 µM	O=C(NNC(=S)Nc1ccc(Cl)c(Cl)c1Cl)c1sc2ccc(Cl)c(Cl)c2c1Cl [Compound XXXIV]	–
–	10 µM	O=C(NNC(=S)Nc1cc(Cl)c(Cl)cc1Cl)c1cc2c(Cl)cccc2s1 [Compound XI]	–
–	7 µM	Cc1ccc(Sc2ccccc2NC(=S)NNC(=O)c2sc3ccc(Cl)c(Cl)c3c2Cl)cc1 [Compound XXXVII]	–
–	8 µM	O=C(NNC(=S)Nc1cc(Cl)c(Cl)cc1Cl)c1sc2cc(-c3ccccc3)ccc2c1Cl [Compound XXIV]	–
–	6 µM	O=C(NNC(=S)Nc1cc(Br)ccc1Br)c1sc2ccc(Cl)c(Cl)c2c1Cl [Compound XXXV]	–
useful anti-telomerase properties	8 µM	O=C(NNC(=S)Nc1cc(Cl)c(Cl)c(Cl)c1Cl)c1sc2ccccc2c1Cl [Compound XIX]	–
–	7 µM	O=C(NNC(=S)Nc1c(Cl)cc(Cl)cc1Cl)c1sc2cc(-c3ccccc3)ccc2c1Cl [Compound XXIX]	–
useful telomerase-inhibiting properties	6.4 µM	CSc1ccc(NC(=S)NNC(=O)c2cc3cc(NC(=S)Nc4cccc(C)c4)ccc3s2)cc1 [Compound VI]	–
–	7 µM	O=C(NNC(=S)Nc1cc(Cl)ccc1Cl)c1sc2ccc(Cl)c(Cl)c2c1Cl [Compound XXXIII]	–
–	5 µM and ≤ 5 µM	O=C(NNC(=S)Nc1cc(Cl)c(Cl)c(Cl)c1Cl)c1cc2cccc(F)c2s1 [IX]	–
useful telomerase-inhibiting properties	23.4 µM	Cc1cccc(NC(=S)Nc2ccc3sc(C(=O)NNC(=S)Nc4cc(C(F)(F)F)cc(C(F)(F)F)c4)cc3c2)c1 [Compound IV]	–
–	7 µM	O=C(NNC(=S)Nc1cc(Cl)c(Cl)c(Cl)c1Cl)c1cc2c(Cl)cccc2s1 [Compound XII]	–
useful telomerase-inhibiting properties	5 µM	COc1ccc2c(Cl)c(C(=O)NNC(=S)Nc3cc(Cl)c(Cl)c(Cl)c3Cl)sc2c1 [Compound XXI]	–
useful telomerase-inhibiting properties	9 µM	COc1ccc2c(Cl)c(C(=O)NNC(=S)Nc3cc(Cl)c(Cl)cc3Cl)sc2c1 [Compound XX]	–

More lines, now with the values behind:

Structure (SMILES)	anti-telomerase activity (in words)	IC50 [1]	IC50 (IC50, approximate values) [µM]
O=C(NNC(=S)Nc1cccc(Cl)c1Cl)c1sc2ccc(Cl)c(Cl)c2c1Cl [Compound XXXI]	–	5 µM and ≤ 5 µM	–
Cc1ccc(Sc2ccccc2NC(=S)NNC(=O)c2cc3cccc(F)c3s2)cc1 [Compound X]	–	6 µM	–
COc1ccc2c(Cl)c(C(=O)NNC(=S)Nc3cc(Cl)c(Cl)c(Cl)c3Cl)sc2c1Cl [Compound XVIII]	–	15 µM	–
O=C(NNC(=S)Nc1cc(Cl)c(Cl)c(Cl)c1Cl)c1sc2cc(-c3ccccc3)ccc2c1Cl [Compound XXV]	–	10 µM	–
Cc1ccc(Sc2ccccc2NC(=S)NNC(=O)c2cc3cc(NC(=S)Nc4cccc(C)c4)ccc3s2)cc1 [Compound V]	useful telomerase-inhibiting properties	9.7 µM	–
O=C(NNC(=S)Nc1cc(Cl)c(Cl)cc1Cl)c1sc2ccc(Cl)c(Cl)c2c1Cl [Compound XXXIX]	–	5 µM and ≤ 5 µM	–
Cc1ccc(NC(=S)Nc2ccc3sc(C(=O)NNC(=S)Nc4cc(Cl)ccc4Cl)cc3c2)cc1 [Compound II]	good anti-telomerase activity	6 µM	–
O=C(NNC(=S)Nc1cc(Cl)ccc1Cl)c1sc2cc(-c3ccccc3)ccc2c1Cl [Compound XXVII]	–	6 µM	–
O=C(NNC(=S)Nc1ccc(Cl)cc1)c1sc2ccc(Cl)c(Cl)c2c1Cl [Compound XLI]	–	8 µM	–
Cc1ccc(Sc2ccccc2NC(=S)NNC(=O)c2cc3cc(NC(=S)Nc4ccccc4Sc4ccc(C)cc4)ccc3s2)cc1 [Compound III]	useful telomerase-inhibiting properties	12 µM	–
O=C(NNC(=S)Nc1cc(Br)ccc1Br)c1sc2cc(-c3ccccc3)ccc2c1Cl [Compound XXVIII]	–	9 µM	–
O=C(NNC(=S)Nc1c(Cl)cc(Cl)cc1Cl)c1sc2ccc(Cl)c(Cl)c2c1Cl [Compound XL]	–	14 µM	–
O=C(NNC(=S)Nc1cc(Cl)c(Cl)c(Cl)c1Cl)c1sc2ccc(Cl)c(Cl)c2c1Cl [Compound XXX]	–	5 µM and ≤ 5 µM	–
Cc1ccc2c(Cl)c(C(=O)NNC(=S)Nc3cccc(Cl)c3Cl)sc2c1 [Compound XXIII]	–	10 µM	–
O=C(NNC(=S)Nc1ccc(Sc2ccc([N+](=O)[O-])cc2)cc1)c1cc2c(F)cccc2s1 [Compound XVI]	–	6 µM	–
O=C(NNC(=S)Nc1cc(C(F)(F)F)cc(C(F)(F)F)c1)c1sc2ccc(Cl)c(Cl)c2c1Cl [Compound XXXVI]	–	8 µM	–
O=C(NNC(=S)Nc1cc(Cl)ccc1Cl)c1cc2ccccc2s1 [Compound VII]	–	10 µM	–
O=C(NNC(=S)Nc1ccc(Cl)c(Cl)c1Cl)c1cc2c(Cl)cccc2s1 [Compound XIV]	–	9 µM	–
O=C(NNC(=S)Nc1cc(Br)ccc1Br)c1cc2c(Cl)cccc2s1 [Compound XIII]	–	9 µM	–
O=C(NNC(=S)Nc1ccc2ccccc2c1)c1sc2ccc(Cl)c(Cl)c2c1Cl [Compound XXXVIII]	–	5 µM and ≤ 5 µM	–
O=C(NNC(=S)Nc1ccc(Cl)cc1Cl)c1sc2ccc(Cl)c(Cl)c2c1Cl [Compound XXXII]	–	7 µM	–
COc1ccc2c(Cl)c(C(=O)NNC(=S)Nc3cc(Cl)c(Cl)cc3Cl)sc2c1Cl [Compound XVII]	–	9 µM	–
O=C(NNC(=S)Nc1cc(Cl)c(Cl)cc1Cl)c1cc2cccc(F)c2s1 [VIII]	–	–	7
